Results published in patent publication US4157399A, “Benzo(B)thiophenes” (Parcor, priority 1976, dated 1979).

Columns and labels:
Assay type in all cases: in vivo
[1] = Rabbit fed cholesterol-enriched (1%) feedstuff, dosage of elements causing dyslipemia; set-up: total cholesterol (T) / esterified cholesterol (E) / Kunkelphenol test (K2) / Burstein dextrane test (B) / serum lipids (LS): unit not given here; conditions: 100 mg/Kg orally
Description: (§1) The animals divided into several batches of 15 animals are fed with feedstuff enriched in cholesterol (1%). Batch A serves as control and is not treated, the other batches also receive the derivatives to be tested at a dose of 100 mg/Kg, administered orally, suspended in aqueous solution of gum arabic at 5%. On the first day of experimentation and then every 15 days for 75 days biological examinations are conducted on all the animals, during which the various elements causing dyslipemia are dosed; total cholesterol (T), esterified cholesterol (E), free cholesterol (L), esterification ratio (E/T), Kunkel-Phenol test (K1), Kunkelphenol test (K2), Burstein dextrane test (B) and serum lipids (LS).

[2] = system: fatty infiltrations of the liver; test: Rabbit autopsy, mark for fatty infiltrations of the liver; conditions: mark of 0 to 3; end of test (75 days); 100 mg/Kg orally
Description: as §1
(§2) At the end of the test all the animals are killed and an autopsy is carried out; a macroscopic examination is then conducted on the livers and aortas and a mark of 0 to 3 is given to the amount of fatty infiltrations of the liver and 0 to 4 to the intensity of aortic atheromatous lesions.

[3] = system: aortic atheromatous lesions; test: Rabbit autopsy, mark for aortic atheromatous lesions; conditions: mark of 0 to 4; end of test (75 days); 100 mg/Kg orally
Description: as §1, §2

[4] = Propylthiouracil test, free and total cholesterol in the rat; conditions: 11th day; propylthiouracil-treated rats; oral 100 mg/Kg
Description: Experiments were carried out according to the propylthiouracil test (RANNEY & Coll., J. PHARMACOL. EXPER. THERAP. 1963, 142, 132-136). The propyl-thiouracil administered to adult rats has the property of making them hypercholesterolemic: the plasma level of cholesterol increases by approximately 15% under these conditions. Experiments are conducted on various batches of rats, the control batch receiving only propylthiouracil and the other treated batches also receiving the composition of the invention at an oral dose of 100 mg/Kg.
On the 11th day of experimentation blood samples are taken and the free cholesterol and total cholesterol is dosed.

Structure (SMILES) | Burstein dextrane test (B) ([1]; 1st day) | Kunkel-Phenol test (K1) ([1]; 1st day) | Kunkelphenol test (K2) ([1]; 1st day) | esterification ratio (E/T) ([1]; 1st day) | esterified cholesterol (E) ([1]; 1st day) | free cholesterol (L) ([1]; 1st day) | serum lipids (LS) ([1]; 1st day) | total cholesterol (T) ([1]; 1st day) | Burstein dextrane test (B) ([1]; 30th day) | Kunkel-Phenol test (K1) ([1]; 30th day) | Kunkelphenol test (K2) ([1]; 30th day) | esterification ratio (E/T) ([1]; 30th day) | esterified cholesterol (E) ([1]; 30th day) | free cholesterol (L) ([1]; 30th day) | serum lipids (LS) ([1]; 30th day) | total cholesterol (T) ([1]; 30th day) | Burstein dextrane test (B) ([1]; 75th day) | Kunkel-Phenol test (K1) ([1]; 75th day) | Kunkelphenol test (K2) ([1]; 75th day) | esterification ratio (E/T) ([1]; 75th day) | other results
c1ccc(CN(Cc2ccccc2)c2c(-c3ccccc3)sc3ccccc23)cc1 [derivative 19, 3-dibenzylamino-2-phenyl-benzo(b)thiophene] | 10,9 | 8,0 | 13,1 | 0,50 | 0,28 | 0,29 | 1,97 | 0,57 | 2,3 | 18,4 | 25,3 | 0,64 | 0,95 | 0,52 | 2,84 | 1,47 | 36,1 | 33,5 | 46,5 | 0,61 | esterified cholesterol (E) ([1]; 75th day): 1,79; free cholesterol (L) ([1]; 75th day): 1,12; serum lipids (LS) ([1]; 75th day): 4,08; total cholesterol (T) ([1]; 75th day): 2,91; fatty infiltrations of the liver [2]: 1,2; aortic atheromatons lesions [3]: 1,3; Free cholesterol [4]: 0,14 g/l; Total cholesterol [4]: 0,58 g/l
CN(C)c1c(-c2ccccc2)sc2ccccc12 [derivative 29, 3-dimethylamino-2-phenyl-benzo(b)thiophene] | 10,7 | 7,8 | 12,7 | 0,46 | 0,27 | 0,28 | 1,95 | 0,58 | 21,00 | 18,4 | 24,9 | 0,60 | 0,89 | 0,59 | 2,83 | 1,48 | 35,1 | 32,6 | 41,5 | 0,60 | esterified cholesterol (E) ([1]; 75th day): 1,75; free cholesterol (L) ([1]; 75th day): 1,15; serum lipids (LS) ([1]; 75th day): 3,95; total cholesterol (T) ([1]; 75th day): 2,90; fatty infiltrations of the liver [2]: 0,8; aortic atheromatons lesions [3]: 1,1; Free cholesterol [4]: 0,12 g/l; Total cholesterol [4]: 0,50 g/l
CCCCN(C)c1c(-c2ccc(OC)cc2)sc2ccccc12 [derivative 42, 3-(N-butyl,N-methylamino)-2-(4-methoxyphenyl)-benzo(b)thiophene] | 11,2 | 8,1 | 13,7 | 0,50 | 0,26 | 0,25 | 2,05 | 0,51 | 21,2 | 18,9 | 25,5 | 0,62 | 0,90 | 0,55 | 2,91 | 1,45 | 35,4 | 33,2 | 45,0 | 0,61 | esterified cholesterol (E) ([1]; 75th day): 1,85; free cholesterol (L) ([1]; 75th day): 1,09; serum lipids (LS) ([1]; 75th day): 4,05; total cholesterol (T) ([1]; 75th day): 2,94; fatty infiltrations of the liver [2]: 0,9; aortic atheromatons lesions [3]: 1,5; Free cholesterol [4]: 0,12 g/l; Total cholesterol [4]: 0,54 g/l
c1ccc(CNc2c(-c3ccccc3)sc3ccccc23)cc1 [derivative n° 1, 3-benzylamino-2-phenyl-benzo(b)thiophene] | 10,8 | 7,9 | 12,8 | 0,53 | 0,28 | 0,24 | 1,98 | 0,52 | 21,3 | 18,8 | 25,7 | 0,63 | 0,95 | 0,55 | 2,9 | 1,50 | 36,2 | 33,3 | 44,2 | 0,62 | esterified cholesterol (E) ([1]; 75th day): 1,84; free cholesterol (L) ([1]; 75th day): 1,12; serum lipids (LS) ([1]; 75th day): 4,18; total cholesterol (T) ([1]; 75th day): 2,96; fatty infiltrations of the liver [2]: 1,1; aortic atheromatons lesions [3]: 1,6; Free cholesterol [4]: 0,15 g/l; Total cholesterol [4]: 0,61 g/l
c1ccc(CN2CCN(c3c(-c4ccccc4)sc4ccccc34)CC2)cc1 [derivative 24, 3-(4-benzylpiperazino)-2-phenyl-benzo(b) thiophene] | 10,8 | 8,2 | 13,0 | 0,50 | 0,28 | 0,27 | 2,00 | 0,55 | 2,1 | 18,8 | 25,3 | 0,65 | 0,98 | 0,52 | 2,87 | 1,50 | 35,2 | 32,9 | 48,2 | 0,61 | esterified cholesterol (E) ([1]; 75th day): 1,80; free cholesterol (L) ([1]; 75th day): 1,11; serum lipids (LS) ([1]; 75th day): 3,98; total cholesterol (T) ([1]; 75th day): 2,91; fatty infiltrations of the liver [2]: 1,00; aortic atheromatons lesions [3]: 1,4; Free cholesterol [4]: 0,14 g/l; Total cholesterol [4]: 0,56 g/l
